In ChEMBL document CHEMBL1201862, “PubChem BioAssay data set” (2004):
Active and inactive are the calls of the source.

What was measured:
[1] = tested on: CHO; assay: cytotoxicity in TLR9-MyD88 CHO cells, dose response, cytotoxicity control for TLR9-MyD88 binding inhibitor project, cell-based, luminescence (AID 588339); assay type: functional, hamster; settings: Cricetulus griseus;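 further: CHO cells stably coexpressing TLR9 and MyD88 fusions from primary screen; compound exposure lasted 48 hours before viability readout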
[2] = tested on: BJ; assay: cytotoxicity toward BJ-TERT-LT-ST fibroblasts, dose response, cell-based, RAS-independent, luminescence (AID 1935); assay type: functional; settings: Homo sapiens;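 further: BJ fibroblasts immortalized with TERT plus LT and ST oncogenes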
[3] = HepG2 cell cytotoxicity, dose response, cytotoxicity control for Shn3 inhibitor project, CellTiter-Glo, cherry-picked (AID 624134); assay type: functional, cell-based
[4] = tested on: BJ; assay: cytotoxicity toward BJ-TERT fibroblasts, dose response, cell-based, RAS-independent, luminescence (AID 1933); assay type: functional; settings: Homo sapiens
[5] = inhibitors of control Renilla luciferase reporter, dose response, counter-screen for Shn3 3'UTR targeting project, Clone20-Shn3RL cells, dual-Glo, cherry-pick, set 2 (AID 720724); assay type: functional, cell-based; settings: Dual-Go Shn3RL
[6] = reduction of Shn3 3'UTR firefly luciferase signal, dose response, Schnurri-3 inhibitor project, cell-based, Clone20 osteoblasts, cherry-pick, set 2 (AID 720490); assay type: functional;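 further: actives lower the luminescence signal as inhibitors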
[7] = Luminescence Cell-Based Dose Confirmation HTS to Identify Activators of 5'UTR Stem-Loop Driven Alpha-Synuclein mRNA Translation in H4 Neuroglioblastoma Cells. [Related pubchem assays: 1829 (Project Summary), 1814 (Primary HTS)]; assay type: functional
[8] = cytotoxicity in HEK-293T cells, dose response, cytotoxicity control for TCR NF-kB inhibitor project, luminescence, T-cell screen hits (AID 489026); assay type: functional, cell-based;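 further: cells exposed to compound about 14 hours before the viability readout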
[9] = Luminescence Cell-Based Dose Response HTS to Identify Activators of Luciferase Translation or Activity in H4 […] Cells. [Related pubchem assays: 1829 (Project Summary), 1814 (Primary HTS)]; assay type: functional
[10] = target: T1, Protein RecA (Mycobacterium tuberculosis, UniProt P9WHJ3); assay: Fluorescence Cell-Free Homogeneous Dose Retest to Identify Inhibitors of RecA-Intein Splicing Activity. [Related pubchem assays (depositor defined):AID2097, AID2223, AID489010, AID492950]; assay type: functional
T1 sequence (P9WHJ3 whole entry): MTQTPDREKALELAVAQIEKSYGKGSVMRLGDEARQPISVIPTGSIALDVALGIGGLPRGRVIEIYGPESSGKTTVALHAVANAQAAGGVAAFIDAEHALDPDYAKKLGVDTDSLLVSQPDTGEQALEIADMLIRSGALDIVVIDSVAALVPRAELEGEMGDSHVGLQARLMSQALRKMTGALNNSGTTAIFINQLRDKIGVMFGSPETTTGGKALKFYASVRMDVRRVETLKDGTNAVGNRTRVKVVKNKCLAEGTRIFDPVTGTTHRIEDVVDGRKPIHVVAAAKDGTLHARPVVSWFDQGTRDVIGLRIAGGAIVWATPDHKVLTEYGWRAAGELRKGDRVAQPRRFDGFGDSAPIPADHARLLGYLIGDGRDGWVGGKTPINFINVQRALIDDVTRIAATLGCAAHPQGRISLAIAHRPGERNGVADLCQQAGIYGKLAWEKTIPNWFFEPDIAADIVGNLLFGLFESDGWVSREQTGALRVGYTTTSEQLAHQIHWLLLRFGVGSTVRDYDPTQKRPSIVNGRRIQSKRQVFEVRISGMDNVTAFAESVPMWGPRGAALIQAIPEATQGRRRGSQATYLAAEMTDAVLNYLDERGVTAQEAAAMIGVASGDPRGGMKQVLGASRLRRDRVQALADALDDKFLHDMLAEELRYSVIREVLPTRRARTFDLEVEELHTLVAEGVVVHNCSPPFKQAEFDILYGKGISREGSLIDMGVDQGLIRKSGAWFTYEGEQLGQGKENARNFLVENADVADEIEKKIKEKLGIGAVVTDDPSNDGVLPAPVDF

[11] = target: T2, Beta Lactamase (Pseudomonas aeruginosa, UniProt Q932Y6); assay: beta-lactamase reporter inhibitor potency, dose response, artefact control for NOD2-RIPK2 interaction inhibitor project, BLA reporter cells, FRET fluorescence (AID 651552); assay type: functional, cell-based
[12] = target: T2, Beta Lactamase; assay: beta-lactamase reporter inhibitor potency, dose response, artefact control for TLR9-MyD88 binding inhibitor project, BLA reporter cells, FRET fluorescence (AID 588341); assay type: cell-based;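 further: cell based assay in CHO-K1 cells stably expressing beta-lactamase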
[13] = Shn3 3'UTR reporter inhibitors, dose response, cell-based, Clone20 osteoblasts, firefly luciferase, cherry-picked (AID 624132); assay type: functional;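 further: firefly luciferase luminescence from reporter carrying the Shn3 3'UTR in osteoblasts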
[14] = Fluorescence-based cell-based high throughput dose response assay for inhibitors of the interaction of nucleotide-binding oligomerization domain containing 2 (NOD2) and the receptor-interacting serine-threonine kinase 2 (RIPK2).; assay type: functional; settings: Homo sapiens
[15] = reduction of endogenous Shn3 mRNA, dose response, qPCR, Clone20 cells, cherry-pick (AID 743415); assay type: functional, cell-based
[16] = control 3'UTR Renilla luciferase suppression, dose response, counter-screen for Shn3 inhibitor project, cell-based, Clone20-Shn3RL, cherry-picked (AID 624133); assay type: functional
[17] = target: T3, Replicative DNA helicase DnaB (Mycobacterium tuberculosis, UniProt P9WMR3); assay: DnaB intein splicing inhibitors, dose response, biochemical, cell-free fluorescence (AID 449749); assay type: functional
T3 sequence (P9WMR3 whole entry): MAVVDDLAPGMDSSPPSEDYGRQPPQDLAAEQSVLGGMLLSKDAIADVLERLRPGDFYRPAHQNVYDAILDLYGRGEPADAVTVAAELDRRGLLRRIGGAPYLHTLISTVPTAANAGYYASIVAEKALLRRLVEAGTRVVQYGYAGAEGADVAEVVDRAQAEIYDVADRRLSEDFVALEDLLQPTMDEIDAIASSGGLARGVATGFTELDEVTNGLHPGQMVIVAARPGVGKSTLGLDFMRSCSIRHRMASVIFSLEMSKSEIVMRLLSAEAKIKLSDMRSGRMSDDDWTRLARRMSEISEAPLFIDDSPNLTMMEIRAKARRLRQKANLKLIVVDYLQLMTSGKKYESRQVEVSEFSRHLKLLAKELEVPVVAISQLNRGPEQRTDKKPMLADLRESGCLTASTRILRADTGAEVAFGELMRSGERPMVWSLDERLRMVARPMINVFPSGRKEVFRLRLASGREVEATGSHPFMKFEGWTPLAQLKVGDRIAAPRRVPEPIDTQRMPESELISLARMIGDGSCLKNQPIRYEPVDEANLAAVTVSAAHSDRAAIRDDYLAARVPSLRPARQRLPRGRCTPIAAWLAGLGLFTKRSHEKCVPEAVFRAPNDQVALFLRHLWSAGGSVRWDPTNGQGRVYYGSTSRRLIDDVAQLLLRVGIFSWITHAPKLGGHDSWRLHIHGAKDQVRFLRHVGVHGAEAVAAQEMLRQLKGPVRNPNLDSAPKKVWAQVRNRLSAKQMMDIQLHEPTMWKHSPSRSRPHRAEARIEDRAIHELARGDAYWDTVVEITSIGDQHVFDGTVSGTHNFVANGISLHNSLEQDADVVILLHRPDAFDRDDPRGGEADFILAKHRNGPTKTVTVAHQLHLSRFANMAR

[18] = tested on: BJ; assay: cytotoxicity toward Ras-transformed BJeLR fibroblasts, dose response, cell-based, alamar blue fluorescence, cherrypicked samples (AID 2631); assay type: functional; settings: Homo sapiens;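 further: confirmatory dose-response assay in RAS-dependent BJ fibroblasts engineered with TERT, LT and ST, with cytotoxicity read by fluorescence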
[19] = cytotoxicity toward DRD oncogenic fibroblasts, dose response, cell-based, non-viral oncogenic, luminescence (AID 1934); assay type: functional; settings: Homo sapiens
[20] = tested on: BJ; assay: cells; assay type: functional, cell-based; settings: Homo sapiens
[21] = tested on: H4; assay: Luminescence Cell-Based Dose Response HTS to Identify Activators of 5'UTR Stem-Loop Driven Prion Protein mRNA Translation in H4 Neuroglioblastoma Cells. [Related pubchem assays: 1829 (Project Summary), 1814 (Primary HTS)]; assay type: functional; settings: Homo sapiens
[22] = target: Neurotensin receptor type 1 (Homo sapiens, UniProt P30989); assay type: functional;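 further: Image-based confirmatory dose-response assay measuring agonist activity at NTR1; NTR1-expressing U2OS osteosarcoma cells imaged for beta-arrestin GFP spot formation; agonist potency where compounds increase beta-arrestin recruitment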
[23] = HepG2 cell cytotoxicity, dose response, cytotoxicity control, ATP luminescence, cherry-pick, activator set 2 (AID 1053143); assay type: functional, cell-based
[24] = Luminescence Cell-Based Dose Retest to Confirm Inhibitors of Cancer Stem Cells. [Related pubchem assays (depositor defined):AID2717, AID2721]; assay type: functional; settings: Homo sapiens
[25] = viability loss in Mcl1-dependent HMC-1-8 cells, dose response, selectivity assay for A1 inhibitor project, cell-based, luminescence, dry powder (AID 504415); assay type: functional; settings: Homo sapiens

T2 sequence (Q932Y6 whole entry): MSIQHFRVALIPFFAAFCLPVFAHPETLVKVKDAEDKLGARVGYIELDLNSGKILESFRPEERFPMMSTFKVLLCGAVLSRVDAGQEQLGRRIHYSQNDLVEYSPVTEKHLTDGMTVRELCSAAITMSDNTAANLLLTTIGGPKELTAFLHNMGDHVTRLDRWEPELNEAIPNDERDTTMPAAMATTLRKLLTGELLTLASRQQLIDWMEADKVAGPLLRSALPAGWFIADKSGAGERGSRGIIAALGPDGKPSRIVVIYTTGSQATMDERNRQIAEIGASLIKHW
Sequence of Neurotensin receptor type 1 (P30989 whole entry): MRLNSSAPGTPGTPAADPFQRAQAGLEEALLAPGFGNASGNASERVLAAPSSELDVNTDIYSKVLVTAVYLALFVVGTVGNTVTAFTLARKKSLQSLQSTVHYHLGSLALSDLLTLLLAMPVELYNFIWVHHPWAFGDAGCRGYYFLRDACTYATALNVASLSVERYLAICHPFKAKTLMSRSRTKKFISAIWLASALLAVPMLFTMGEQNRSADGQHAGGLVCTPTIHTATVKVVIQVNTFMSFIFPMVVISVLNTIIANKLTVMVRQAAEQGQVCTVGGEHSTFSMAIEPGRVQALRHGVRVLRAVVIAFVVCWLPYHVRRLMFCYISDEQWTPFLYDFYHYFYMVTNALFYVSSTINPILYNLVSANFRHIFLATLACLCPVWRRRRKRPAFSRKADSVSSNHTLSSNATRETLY

CCOC(=O)C1CCN(S(=O)(=O)c2c(Cl)ccc3nonc23)CC1
IC50 [1]: 2.42 µM (active)
EC50 [2]: 2.84 µM (inconclusive)
AC50 [3]: 12.2 µM (active)
EC50 [4]: 2.73 µM (inconclusive)
AC50 [5]: 1.77 µM (active)
AC50 [6]: 1.97 µM (active)
EC50 [7]: > 120 µM (not active)
IC50 [8]: > 80 µM (inactive)
EC50 [9]: > 120 µM (not active)
EC50 [10]: 14.4 µM (active)
IC50 [11]: 26.8 µM (inactive)
IC50 [12]: 21.2 µM (inactive)
AC50 [13]: 0.919 µM (active)
IC50 [14]: 1.12 µM (active)
AC50 [15]: 3.36 µM (active)
AC50 [16]: 4.78 µM (active)
AC50 [17]: 5.07 µM (active)
EC50 [18]: 0.318 µM (active)
EC50 [19]: 2.75 µM (active)
EC50 [20]: 6.08 µM (inconclusive)
EC50 [21]: > 120 µM (not active)

Cc1ccc(Sc2c([N+](=O)[O-])c(=O)n(C)c3ccccc23)cc1
EC50 [22]: 26 µM (inactive)
AC50 [23]: 26 µM (active)
AC50 [24]: 3.18 µM (active)
AC50 [25]: 19.3 µM (active)
